Test results from PubChem BioAssay (NCI).
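Growth conditions: 96-well plates. Treatment: test compound, 48 hours, 5 concentrations. Analysis: linear interpolation between bracketing concentrations; unreached endpoints set to highest concentration. GI50 = concentration required for 50% inhibition of growth. TGI: total growth inhibition.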

What was measured:
Assay in all cases: inhibition of tumour cell growth, NCI panel, 48 h
[1] = test system: HCT-15 colon
[2] = test system: CAKI-1 renal
[3] = test system: UACC-62 melanoma
[4] = test system: LOX IMVI melanoma
[5] = test system: OVCAR-4 ovarian
[6] = test system: SN12C renal
[7] = test system: HL-60(TB) leukemia
[8] = test system: IGROV1 ovarian
[9] = test system: HS 578T breast
[10] = test system: MDA-MB-435

Compound	TGI [1]	TGI [2]	TGI [3]	TGI [4]	TGI [5]	TGI [6]	TGI [7]	TGI [8]	TGI [9]	TGI [10]	GI50 [1]	GI50 [2]	GI50 [3]	GI50 [9]	GI50 [4]	GI50 [5]	GI50 [6]	GI50 [8]	GI50 [10]	GI50 [7]
CCOc1ccc(NC(=O)CCc2nnc(SC)o2)cc1	> 100 µM	> 100 µM	> 100 µM	> 100 µM	> 100 µM	> 100 µM	> 100 µM	> 100 µM	–	–	–	–	–	–	–	–	–	–	–	–
Cc1cc2c(c(C(N)=O)c1C)-c1cc(Cl)cc(Cl)c1C2=O	> 100 µM	–	> 100 µM	> 100 µM	> 100 µM	> 100 µM	> 100 µM	> 100 µM	–	–	–	–	–	–	–	–	–	–	–	–
c1cc(-c2cn3c(n2)SCC3)ccn1	> 59 µM	> 100 µM	> 100 µM	> 100 µM	> 100 µM	> 100 µM	> 67.5 µM	> 100 µM	–	–	–	–	–	–	–	–	–	–	–	–
O=C1c2ccccc2N2OC3(N4CCCC4)CCCCC3C12c1ccccc1 (stereo not drawn)	> 100 µM	–	40.1 µM	–	28.1 µM	30.5 µM	53.7 µM	> 100 µM	–	–	–	–	–	–	–	–	–	–	–	–
N#CC1(C#N)C(c2ccccc2)C=CC12OCCCO2 (stereo not drawn)	–	74.1 µM	> 100 µM	> 100 µM	> 100 µM	> 100 µM	92.3 µM	> 100 µM	–	–	–	–	–	–	–	–	–	–	–	–
O=C(/C=C/c1ccc(Cl)c(Cl)c1)c1cccc2ccccc12	7.12 µM	20.4 µM	25.5 µM	–	20.7 µM	31.8 µM	7.21 µM	24.8 µM	–	–	–	–	–	–	–	–	–	–	–	–
Cc1ccccc1-n1c(N)c(-c2nc3ccccc3[nH]2)sc1=S	71.7 µM	71.4 µM	37.1 µM	52.6 µM	78.3 µM	56.9 µM	66.6 µM	57 µM	–	–	–	–	–	–	–	–	–	–	–	–
O=C(Cc1nc2ccccc2o1)C(=O)Nc1cccc(C(F)(F)F)c1	> 100 µM	> 100 µM	> 100 µM	> 100 µM	> 100 µM	> 100 µM	> 100 µM	> 100 µM	–	–	–	–	–	–	–	–	–	–	–	–
Fc1cccc(F)c1C(Nc1nncs1)Nc1nncs1	> 100 µM	> 100 µM	> 100 µM	–	> 100 µM	> 100 µM	–	> 100 µM	> 100 µM	> 100 µM	–	–	–	–	–	–	–	–	–	–
CC(=O)/C(=C\c1ccccc1O)C(=O)Nc1ccccc1C	45.3 µM	63.8 µM	68.7 µM	27.6 µM	> 100 µM	–	41.8 µM	79 µM	–	–	–	–	–	–	–	–	–	–	–	–
CC1=NN(c2ccccc2)C(=O)/C1=C\c1ccc([N+](=O)[O-])cc1	> 100 µM	73.6 µM	53.3 µM	48.1 µM	42.2 µM	> 100 µM	56.2 µM	83.3 µM	–	–	–	–	–	–	–	–	–	–	–	–
COc1ccc(-c2cc(=O)c3c(O)cccc3o2)c(OC)c1OC	> 100 µM	> 100 µM	> 100 µM	> 100 µM	> 100 µM	> 100 µM	> 100 µM	> 100 µM	–	–	–	–	–	–	–	–	–	–	–	–
ClC1=C(Cl)C(Cl)(Cl)c2c3c(c4c(c21)C(Cl)(Cl)C(Cl)=C4Cl)C(Cl)(Cl)C(Cl)=C3Cl	> 100 µM	–	–	> 100 µM	–	> 100 µM	> 100 µM	> 100 µM	–	–	–	–	–	–	–	–	–	–	–	–
COc1ccc(/C=C(\C)[N+](=O)[O-])cc1OC	3.54 µM	3.89 µM	3.87 µM	2.97 µM	4.91 µM	8.23 µM	–	5.51 µM	15.9 µM	3.94 µM	1.4 µM	1.88 µM	1.82 µM	3.5 µM	1.36 µM	1.97 µM	2.72 µM	2.16 µM	1.86 µM	–
CC(C)(C)c1cc2nc(c1)C(C(F)(F)F)(C(F)(F)F)OB(Br)OC2(C(F)(F)F)C(F)(F)F	13.8 µM	1.18 µM	0.983 µM	3.78 µM	–	7.26 µM	–	8.83 µM	–	–	–	–	–	–	–	–	–	–	–	–
N[C@H](COCc1ccccc1)c1ccccc1	> 79.4 µM	61.2 µM	> 100 µM	> 92.2 µM	> 100 µM	> 81.6 µM	30.8 µM	> 100 µM	–	–	–	–	–	–	–	–	–	–	–	–
c1ccc2c(c1)CCc1c-2n[nH]c1-c1[nH]nc2c1CCc1ccccc1-2	> 100 µM	> 100 µM	> 100 µM	> 100 µM	–	> 100 µM	> 100 µM	> 100 µM	–	–	–	–	–	–	–	–	–	–	–	–
CC1=C(C(=O)Nc2ccc(Cl)c(Cl)c2)C(c2ccc([N+](=O)[O-])cc2)C(C(=O)Nc2ccc(Cl)c(Cl)c2)=C(C)N1	7.88 µM	16 µM	4.46 µM	4.02 µM	11.8 µM	7.3 µM	–	14.8 µM	–	–	–	–	–	–	–	–	–	–	–	–

Compound	TGI [1]	TGI [2]	TGI [3]	TGI [4]	TGI [5]	TGI [6]	TGI [7]	TGI [8]	TGI [9]	TGI [10]	GI50 [1]	GI50 [2]	GI50 [3]	GI50 [9]	GI50 [4]	GI50 [5]	GI50 [6]	GI50 [8]	GI50 [10]	GI50 [7]
O=Cc1ccc2c(c1I)OCO2	> 100 µM	> 100 µM	> 100 µM	> 100 µM	> 100 µM	> 100 µM	> 100 µM	> 100 µM	–	–	–	–	–	–	–	–	–	–	–	–
C=CCc1cc(Nc2c3ccc(Cl)cc3nc3ccc(OC)cc23)cc(CN(CC)CC)c1O	12 µM	11.1 µM	4.4 µM	2.58 µM	12.2 µM	12.1 µM	–	21.1 µM	14.3 µM	11.8 µM	2.59 µM	2.4 µM	1.75 µM	3.04 µM	1.23 µM	1.68 µM	2.03 µM	2.69 µM	2.3 µM	–
C=C1[C@@H](O)O[C@H]2[C@H]1C[C@H](OC(C)=O)[C@]13C(=O)O[C@H]4C[C@](C)(O)[C@H]([C@H]41)C31C=C(C)[C@]2(O)O1	> 100 µM	34.6 µM	> 100 µM	> 100 µM	> 100 µM	95.2 µM	> 100 µM	71.4 µM	–	> 100 µM	49.2 µM	0.516 µM	30.3 µM	–	29.6 µM	> 100 µM	26.6 µM	18.8 µM	13.3 µM	61.8 µM
Cc1cccc(NC(=O)/C(=N\N)C(c2cnc3ccc([N+](=O)[O-])cc3n2)[N+](=O)[O-])c1C (stereo not drawn)	> 100 µM	> 100 µM	> 100 µM	> 100 µM	> 100 µM	> 100 µM	> 100 µM	> 100 µM	–	–	–	–	–	–	–	–	–	–	–	–
COc1cc(C2(C)SCCCS2)cc(OC)c1OC	> 100 µM	> 100 µM	> 100 µM	> 100 µM	> 100 µM	> 100 µM	> 100 µM	> 100 µM	–	–	–	–	–	–	–	–	–	–	–	–
COc1ccc(NC(=O)C(=O)/C=C(\O)c2ccccc2)cc1	> 10 µM	> 10 µM	> 10 µM	5.27 µM	> 10 µM	> 10 µM	> 10 µM	> 10 µM	–	> 10 µM	–	–	–	–	–	–	–	–	–	–
CCOC(=O)C1Nc2ccccc2[C@H]2OCC[C@@H]12 (stereo partly drawn)	> 100 µM	> 100 µM	> 100 µM	> 100 µM	> 100 µM	> 100 µM	> 100 µM	> 100 µM	–	–	–	–	–	–	–	–	–	–	–	–
CCCC(S(=O)(=O)c1ccccc1)S(=O)(=O)c1ccccc1	> 100 µM	> 100 µM	> 100 µM	–	> 100 µM	–	> 100 µM	> 100 µM	–	–	–	–	–	–	–	–	–	–	–	–
COc1cc2ncc3c(nc4sccn43)c2cc1OC	> 100 µM	21.2 µM	> 100 µM	> 100 µM	70.4 µM	89.3 µM	–	–	> 100 µM	> 100 µM	11.1 µM	2.38 µM	22.9 µM	22.1 µM	15.6 µM	32 µM	22.5 µM	–	27.2 µM	–
N#CCN1C(=O)c2cc([N+](=O)[O-])cc3cc([N+](=O)[O-])cc(c23)C1=O	20.3 µM	96.6 µM	29.2 µM	18.8 µM	28.4 µM	27.9 µM	> 24.1 µM	18.3 µM	–	–	–	–	–	–	–	–	–	–	–	–
CNNC(=NS(=O)(=O)c1cc(C#N)c(NNC)cc1S)NNC	> 10 µM	> 10 µM	–	> 10 µM	> 10 µM	> 10 µM	> 10 µM	> 10 µM	> 10 µM	–	–	–	–	–	–	–	–	–	–	–
C/C(=N\O)c1cccc(Nc2cc(-n3ccnc3)c3ccccc3n2)c1	22.6 µM	32.9 µM	19.5 µM	–	–	38.2 µM	–	20.5 µM	60.9 µM	24.4 µM	9.26 µM	11.2 µM	6.63 µM	17.2 µM	–	–	16.2 µM	4.3 µM	10.9 µM	–
N#CNc1nc(N)c(-c2ccc(Cl)cc2)c(C(=O)Nc2nccs2)n1	> 100 µM	> 100 µM	> 100 µM	> 100 µM	> 100 µM	> 100 µM	> 100 µM	> 100 µM	–	–	–	–	–	–	–	–	–	–	–	–
COc1ccc(OC(=O)CC2Cc3cc(OC)c(OC)c(OC)c3-c3ccc(SC)c(=O)cc32)cc1 (stereo not drawn)	> 37.7 µM	–	21 µM	17.8 µM	> 100 µM	> 71.8 µM	2.35 µM	> 100 µM	–	–	–	–	–	–	–	–	–	–	–	–
COc1ccc(C(=O)/C=C/c2ccc(OCC#N)cc2)cc1	54.7 µM	42 µM	> 10 µM	–	> 100 µM	39.2 µM	–	> 10 µM	> 100 µM	59.3 µM	–	–	–	–	–	–	–	–	–	–
Cc1cc(=O)c2c(O)cc3c(c2o1)CC=C(COC1OC(COC2OC(CO)C(O)C(O)C2O)C(O)C(O)C1O)CO3 (stereo not drawn)	> 100 µM	> 100 µM	> 100 µM	> 100 µM	> 100 µM	> 100 µM	–	> 100 µM	–	–	–	–	–	–	–	–	–	–	–	–
O=C(NCCNCCO)c1cccc2ccc(-c3ccccc3)nc12	14.8 µM	14.1 µM	13.8 µM	10.5 µM	18.5 µM	17.6 µM	> 100 µM	13.2 µM	–	–	–	–	–	–	–	–	–	–	–	–
